The results in this text go back to patent US10072026B2, “Crystalline form of 3-((1R,3s,5S)-3-((7-((5-methyl-1H-pyrazol-3-yl)amino)-1,6-naphthyridin-5-yl)amino)-8-azabicyclo[3.2.1]octan-8-yl)propanenitrile” (priority 2015, dated 2018).

Where two headings read alike, the source gives them in different places.

The nature of series [1]: Pharmacokinetics in plasma and the GI tract in dogs. In kind it is in vivo. Particulars: male, beagle, GI tissue (duodenum, ileum, cecum, colon) and plasma, dog, 5 mg/kg oral. The protocol: Assay 6: Pharmacokinetics in Plasma and the GI Tract in Rats and Dogs
An analogous experiment was performed in dogs. Male beagle dogs (n=2) were dosed via oral gavage with 5 mg/kg of test compound, formulated as above. In dog number 1, plasma samples were taken at 0.25, 1, 2, 4, 6, and 24 hr post dosing. In dog number 2, plasma samples were taken to 6 hr. In both dog number 1 (at 24 hr) and dog number 2 (at 6 hr) the GI tract was removed and segmented as follows: duodenum, ileum, cecum and the colon segmented into equal thirds (proximal, middle, and distal colon). For each of the GI segments, an approximately 2 cm piece was excised in the middle of the segment. Each was washed thoroughly in ice cold PBS buffer and then homogenized in 5 volumes of PBS buffer and analyzed as above. […] The GI tissue to plasma ratio ranged from about 7 to about 30 for collections conducted at 24 hours post oral dose.

The subject of series [2] is oxazolone-induced colitis. In words: Mouse model of oxazolone-induced colitis. In kind it is in vivo, BALB/C mice. A digest of the protocol: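 Adult BALB/c mice skin-sensitized with 4% oxazolone on day 1, then challenged intrarectally 7 days later with 50 μL 1% oxazolone. Compound dosed PO, BID or TID, starting one day before challenge. Blinded Disease Activity Index (stool consistency, bleeding, weight loss, averaged) scored 2 days post-challenge.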

Series [3] deals with IL-4 induced STAT6 phosphorylation in THP-1 human monocytic cells. In words: Cellular JAK potency assay, THP-1. The settings on record: Homo sapiens, THP-1, read-out: THP-1 IL4 pIC50 (converted).
The nature of series [4]: First in human study of safety, tolerability and pharmacokinetics in healthy subjects. Particulars: for Cmax at 14 days / Cmax: human, plasma, oral, healthy subjects; for Cmax at 14 days: 14 days administration up to 300 mg; for Cmax: single dose up to 1000 mg. In kind it is in vivo. The protocol:
Assay 9: First in Human Study to Evaluate the Safety, Tolerability and Pharmacokinetics in Healthy Subjects
The compound of Example 1 was evaluated in a double-blinded, randomized, placebo-controlled, single ascending dose (SAD) and multiple ascending dose (MAD) study of safety, tolerability, and pharmacokinetics in healthy subjects. Pharmacokinetic samples were collected up to 72 hours post the final dose in both the SAD study (after the first dose) and MAD study (after 14 days of once-daily dosing). The SAD study enrolled 5 cohorts and the MAD study enrolled 4 cohorts totaling 72 subjects, of which 71 completed the dosing period.
Plasma pharmacokinetic (PK) parameters were determined by non-compartmental analysis using WinNonLin Version 6.4.0 (Pharsight, St Louis, Mo.). The plasma PK parameter presented here is:
Cmax: maximum concentration in plasma

A further series relates to mouse splenic NK cells. In words: Immunosuppression effects in mouse splenic natural killer (NK) cells. In kind it is in vivo, Balb/C mice. Particulars: mouse spleen, PO BID three days. The protocol:
Adult male Balb/C mice (12-14 weeks of age) from Harlan were used for the study. […] Spleens were harvested 1 or 2 h post last dose and crushed immediately for cell subtype staining. Prior to fixation, fluorophore-labelled antibodies for CD19 (FITC; B cells), CD3e (PE; pan T cells) and DX5 (APC; NK cells) were incubated with splenocyte samples from each animal to allow for simultaneous, multiple subtype % analysis on the flow cytometer. The number of total spleen cells for each animal was measured by Scepter™ 2.0 Handheld Automated Cell Counter. The absolute number of lymphocyte subtype population (e.g., splenic B, T and NK cells) was calculated from the percentage of each subtype times total spleen cells for each animal. A one way ANOVA, with Dunnett's post hoc test, was used to compare the splenic lymphocytes number of the vehicle and test compound groups. The a level was set at p<0.05. Data were presented as the mean±SEM for each group.

The nature of another series: in vivo. On the set-up: species or system Sprague Dawley rats. The settings on record: Sprague Dawley, rat, po, 5 mg/kg. The protocol: Assay 5: Colon Pharmacokinetics in Rats
Test compounds were individually formulated in 0.5% methyl-cellulose in water and dosed via oral gavage at 5 mg/kg to Sprague Dawley rats. At various time points (typically 1, 2, 4, 6, 24 hr) post dosing, blood samples were removed via cardiac puncture and intact colons were excised from the rats. Blood samples were centrifuged at 1500×g for 15 min to collect plasma. Colons were washed with ice cold phosphate buffered saline (PBS), weighed, and homogenized at a dilution of 1:10 in PBS. Plasma and colon levels of test compound were determined by LC-MS analysis against analytical standards constructed into a standard curve in the test matrix. A colon to plasma ratio was determined as the ratio of the colon AUC to the plasma AUC in μg hr/g.

The test system of series [5] is IL-13 induced STAT6 phosphorylation in BEAS-2B human lung epithelial cells. In words: AlphaScreen cellular JAK potency assay, BEAS-2B. Particulars: Homo sapiens, BEAS-2B, read-out: BEAS2B pIC50 (converted).
Series [6] is described as follows: Pharmacokinetics in plasma and the GI tract in rats. In kind it is in vivo, Sprague Dawley rats. Particulars: rat, 5 mg/kg oral, all time points (0.5-24 hr); below limit of quantitation. The protocol:
Assay 6: Pharmacokinetics in Plasma and the GI Tract in Rats and Dogs A test compound was dosed to male Sprague Dawley rats (n=3) as described in Assay 5. […] At all time points, the plasma concentration was below the limit of quantitation of 0.001 μg/mL.

A short description of series [7]: Dynamic moisture sorption assessment. Type of series: physicochemical. The protocol: The DMS run was performed isothermally at 25° C.
Series [8] is described as follows: Solid state stability assessment. In kind it is physicochemical. On the set-up: Impurity at RRT 0.96 / Impurity at RRT 1.84: unit not given here. The source says:
Solid State Stability Assessment
At specific intervals, the contents of a representative sample was removed and analyzed by HPLC for chemical purity and by Karl Fischer for water content.

Where [9] appears, read: read-out: average Cmax plasma concentration.
Where [10] appears, read: read-out: individual subject Cmax.

Turning to `Cc1cc(Nc2cc3ncccc3c(N[C@@H]3C[C@H]4CC[C@@H](C3)N4CCC#N)n2)n[nH]1` [Example 1, 3-((1R,3s,5S)-3-((7-((5-methyl-1H-pyrazol-3-yl)amino)-1,6-naphthyridin-5-yl)amino)-8-azabicyclo[3.2.1]octan-8-yl)propanenitrile], the Kp at 6 hours in series [1] (6 hours post dose, read-out: ratio of concentration in GI tissue to plasma) fell in the range of 9 to 165. In addition, in series [1] (24 hours post dose, read-out: GI tissue to plasma ratio), the Kp at 24 hours was 7 to 30. In [2] (mouse oxazolone-induced colitis), the “minimal dose that caused a significant anti-colitic effect” value is given as 1 mg/kg. For the same compound, the “decrease in DAI score as compared with vehicle treated animals” value in series [2] (mouse, PO, 1, 3, and/or 10 mg/kg BID) was “statistically significant decrease”. In addition, the IC50 in series [3] and in series [5] was 0.0316 to 0.2 µM in each case. For the same compound, the “drug concentration in stool samples” value in series [4] (healthy human subjects) was “high drug concentration”. The Cmax at 14 days is < 15 ng/mL in series [4] (setting [9]) and ≤ 30 ng/mL in [4] (setting [10]). Further, the Cmax in series [4] (setting [9]) is < 50 ng/mL; in [4] (setting [10]), ≤ 100 ng/mL. The “treatment effect on B and T cell populations” value with mouse splenic NK cells was “No treatment effect”. For the same compound, the Kp in the series “in vivo” is > 450. Further, in [6], the plasma concentration was < 1 ng/mL.

Consider `Cc1cc(Nc2cc3ncccc3c(N[C@@H]3C[C@H]4CC[C@@H](C3)N4CCC#N)n2)n[nH]1` [Form I, 3-((1R,3s,5S)-3-((7-((5-methyl-1H-pyrazol-3-yl)amino)-1,6-naphthyridin-5-yl)amino)-8-azabicyclo[3.2.1]octan-8-yl)propanenitrile], for which the “weight gain (moisture sorption)” value in series [7] (5% to 90% relative humidity, room temperature, listed as Crystalline 3-(1R,3s,5S)-3-((7-((5-methyl-1H-pyrazol-3-yl)amino)-1,6-naphthyrid))) was “less than 0.15%”. Further, the hygroscopicity result in [7] (two cycles of sorption and desorption, 25° C.) is given as “non-hygroscopic”. In addition, in series [8] (3 months at 40° C. and 75% relative humidity), the “changes in chemical content and impurity profile” value is “no statistically significant changes”. In addition, in [8] (T = 0), the Assay came out at 97.4 % w/w, the HPLC purity came out at 99.76 a/a %, the “Impurity at RRT 0.96” value turned out to be 0.07 and the “Impurity at RRT 1.84” value was determined as 0.08. Further, in [8] (T = 0), the “Water (KF)” value is <0.2 % w/w. In series [8] (T = 1 Month, 40° C./75% RH), the Assay worked out at 98.7 % w/w, the HPLC purity was 99.79 a/a %, the “Impurity at RRT 0.96” value is 0.07 and the “Impurity at RRT 1.84” value was 0.08. Also, in series [8] (T = 3 Month, 25° C./60% RH), the Assay is recorded as 96.3 % w/w, the HPLC purity is recorded as 99.77 a/a %, the “Impurity at RRT 0.96” value came to 0.07 and the “Impurity at RRT 1.84” value is 0.05. In addition, in series [8] (T = 3 Month, 40° C./75% RH), the Assay came out at 93.8 % w/w, the HPLC purity was found to be 99.75 a/a %, the “Impurity at RRT 0.96” value was determined as 0.07 and the “Impurity at RRT 1.84” value is reported as 0.05. Further, the “Water (KF)” value in series [8] (T = 3 Month, 40° C./75% RH) is reported as <0.2 % w/w.
